Where a name gives a salt, the structure may show the parent alone. Read-outs that look alike come from different tables or passages of the source.
Assays:
Assay type in all cases: biochemical
[1] = target: T1, human JAK1 (a.a. 837-1142) (Homo sapiens, UniProt P23458); test: In vitro JAK kinase assay (HTRF, phosphorylation of a biotinylated peptide), JAK1; conditions: read-out: JAK1 IC50
T1 construct: human JAK1 (a.a. 837-1142); His tag (N); made in house; host or cells: insect cells (baculovirus)
Outline: (§1)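 Phosphorylation of a biotinylated peptide by the JAK kinase domain, detected by HTRF with Eu-Py20 and SA-APC. ATP was 90 μM for JAK1, 30 μM for JAK2 and 3 μM for JAK3. Reactions ran 1 h at room temperature and were stopped with EDTA, followed by 40 min antibody binding.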

[2] = target: T2, human JAK2 (a.a. 828-1132) (Homo sapiens, UniProt O60674); test: In vitro JAK kinase assay (HTRF, phosphorylation of a biotinylated peptide), JAK2
T2 construct: JAK2 (a.a. 828-1132); His tag (N); made in house; host or cells: insect cells (baculovirus)
Outline: as §1

[3] = target: T3, human JAK3 (a.a. 781-1124) (Homo sapiens, UniProt P52333); test: In vitro JAK kinase assay (HTRF, phosphorylation of a biotinylated peptide), JAK3
T3 construct: JAK3 (a.a. 781-1124); His tag (N); made in house; host or cells: insect cells (baculovirus)
Outline: as §1

TYK2 = TYK2 (Homo sapiens, UniProt P29597); test: TYK2 kinase inhibition (Table A1)
[4] = target: T4, Recombinant Human Anaplastic Lymphoma Kinase (Homo sapiens, UniProt Q9UM73); test: ALK HTRF kinase assay
T4 construct: purchased Invitrogen, Carlsbad, Calif
Outline: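 IC50 was obtained from a logistic fit of signal versus log inhibitor concentration, using pre- and post-transition baselines and a Hill slope. The signal reported tyrosine phosphorylation of a biotinylated peptide by recombinant human kinase, detected as Eu-to-APC energy transfer.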

[5] = method AA1 (90 μM ATP) or AA2 (1000 μM ATP), not stated per value
[6] = method AA1 (30 μM ATP) or AA2 (1000 μM ATP), not stated per value
[7] = method AA1 (3 μM ATP) or AA2 (1000 μM ATP), not stated per value
[8] = compound at 500 nM or 1 mM, 90 μM ATP
[9] = Table B1, cells without percent sign
[10] = compound at a concentration of 500 nM or 1 mM (not specified), cells shown as percentage

T3 sequence (P52333 781-1124): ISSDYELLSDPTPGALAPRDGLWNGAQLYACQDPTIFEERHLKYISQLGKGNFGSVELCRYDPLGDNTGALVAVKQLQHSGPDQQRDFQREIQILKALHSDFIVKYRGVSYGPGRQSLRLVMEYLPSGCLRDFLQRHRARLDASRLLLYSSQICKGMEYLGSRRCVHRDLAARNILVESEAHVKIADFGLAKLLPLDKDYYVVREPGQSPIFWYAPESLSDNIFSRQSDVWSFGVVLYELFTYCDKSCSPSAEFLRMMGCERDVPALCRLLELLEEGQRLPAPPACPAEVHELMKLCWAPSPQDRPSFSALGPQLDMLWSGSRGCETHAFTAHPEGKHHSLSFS
Sequence of TYK2 (P29597 whole entry): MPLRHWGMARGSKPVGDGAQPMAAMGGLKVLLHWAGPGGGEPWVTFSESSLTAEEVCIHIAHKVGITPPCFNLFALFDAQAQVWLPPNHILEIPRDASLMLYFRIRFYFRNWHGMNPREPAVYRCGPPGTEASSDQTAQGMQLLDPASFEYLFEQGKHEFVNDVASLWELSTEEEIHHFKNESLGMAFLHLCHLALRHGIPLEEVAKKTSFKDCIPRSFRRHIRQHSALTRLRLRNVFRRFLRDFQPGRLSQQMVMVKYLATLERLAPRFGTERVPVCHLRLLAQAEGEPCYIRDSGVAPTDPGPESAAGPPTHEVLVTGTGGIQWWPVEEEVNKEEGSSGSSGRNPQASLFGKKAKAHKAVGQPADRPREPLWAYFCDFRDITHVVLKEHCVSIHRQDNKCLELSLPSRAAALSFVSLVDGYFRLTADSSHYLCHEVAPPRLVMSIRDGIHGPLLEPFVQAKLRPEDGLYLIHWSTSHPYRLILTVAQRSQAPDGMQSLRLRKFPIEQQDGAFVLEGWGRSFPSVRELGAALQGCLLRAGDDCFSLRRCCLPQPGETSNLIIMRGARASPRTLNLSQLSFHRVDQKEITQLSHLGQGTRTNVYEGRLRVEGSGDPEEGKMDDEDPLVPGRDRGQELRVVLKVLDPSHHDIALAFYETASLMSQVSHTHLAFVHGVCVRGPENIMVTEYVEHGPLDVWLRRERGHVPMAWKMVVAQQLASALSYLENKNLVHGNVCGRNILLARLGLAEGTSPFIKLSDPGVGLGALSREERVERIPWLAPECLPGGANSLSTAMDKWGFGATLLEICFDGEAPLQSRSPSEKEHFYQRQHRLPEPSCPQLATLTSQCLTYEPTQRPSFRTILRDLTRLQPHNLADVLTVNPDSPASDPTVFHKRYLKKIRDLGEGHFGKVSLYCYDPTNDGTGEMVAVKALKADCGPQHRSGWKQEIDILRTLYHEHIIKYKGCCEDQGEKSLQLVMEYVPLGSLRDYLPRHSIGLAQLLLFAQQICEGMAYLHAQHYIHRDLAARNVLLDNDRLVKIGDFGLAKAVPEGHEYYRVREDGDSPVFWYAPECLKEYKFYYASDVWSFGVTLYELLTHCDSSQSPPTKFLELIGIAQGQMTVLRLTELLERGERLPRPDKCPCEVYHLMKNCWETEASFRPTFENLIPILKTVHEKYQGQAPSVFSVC
T2 sequence (O60674 828-1132): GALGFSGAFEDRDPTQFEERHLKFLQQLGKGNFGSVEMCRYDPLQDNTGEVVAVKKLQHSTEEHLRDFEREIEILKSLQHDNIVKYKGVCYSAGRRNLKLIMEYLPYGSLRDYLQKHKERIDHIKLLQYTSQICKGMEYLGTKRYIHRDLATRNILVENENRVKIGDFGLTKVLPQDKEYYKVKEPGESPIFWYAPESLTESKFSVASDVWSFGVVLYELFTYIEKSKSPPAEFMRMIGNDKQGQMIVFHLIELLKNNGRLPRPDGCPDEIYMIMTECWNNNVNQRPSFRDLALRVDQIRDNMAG
T1 sequence (P23458 849-1154): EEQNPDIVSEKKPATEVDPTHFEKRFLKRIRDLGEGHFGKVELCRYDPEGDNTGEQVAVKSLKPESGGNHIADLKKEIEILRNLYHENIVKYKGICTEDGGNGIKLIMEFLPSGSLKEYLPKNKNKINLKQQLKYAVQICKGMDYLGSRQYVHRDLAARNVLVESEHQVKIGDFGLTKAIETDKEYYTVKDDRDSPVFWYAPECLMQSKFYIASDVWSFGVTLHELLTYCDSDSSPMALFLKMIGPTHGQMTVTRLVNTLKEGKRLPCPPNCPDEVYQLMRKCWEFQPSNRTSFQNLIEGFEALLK
T4 sequence (Q9UM73 19-1620): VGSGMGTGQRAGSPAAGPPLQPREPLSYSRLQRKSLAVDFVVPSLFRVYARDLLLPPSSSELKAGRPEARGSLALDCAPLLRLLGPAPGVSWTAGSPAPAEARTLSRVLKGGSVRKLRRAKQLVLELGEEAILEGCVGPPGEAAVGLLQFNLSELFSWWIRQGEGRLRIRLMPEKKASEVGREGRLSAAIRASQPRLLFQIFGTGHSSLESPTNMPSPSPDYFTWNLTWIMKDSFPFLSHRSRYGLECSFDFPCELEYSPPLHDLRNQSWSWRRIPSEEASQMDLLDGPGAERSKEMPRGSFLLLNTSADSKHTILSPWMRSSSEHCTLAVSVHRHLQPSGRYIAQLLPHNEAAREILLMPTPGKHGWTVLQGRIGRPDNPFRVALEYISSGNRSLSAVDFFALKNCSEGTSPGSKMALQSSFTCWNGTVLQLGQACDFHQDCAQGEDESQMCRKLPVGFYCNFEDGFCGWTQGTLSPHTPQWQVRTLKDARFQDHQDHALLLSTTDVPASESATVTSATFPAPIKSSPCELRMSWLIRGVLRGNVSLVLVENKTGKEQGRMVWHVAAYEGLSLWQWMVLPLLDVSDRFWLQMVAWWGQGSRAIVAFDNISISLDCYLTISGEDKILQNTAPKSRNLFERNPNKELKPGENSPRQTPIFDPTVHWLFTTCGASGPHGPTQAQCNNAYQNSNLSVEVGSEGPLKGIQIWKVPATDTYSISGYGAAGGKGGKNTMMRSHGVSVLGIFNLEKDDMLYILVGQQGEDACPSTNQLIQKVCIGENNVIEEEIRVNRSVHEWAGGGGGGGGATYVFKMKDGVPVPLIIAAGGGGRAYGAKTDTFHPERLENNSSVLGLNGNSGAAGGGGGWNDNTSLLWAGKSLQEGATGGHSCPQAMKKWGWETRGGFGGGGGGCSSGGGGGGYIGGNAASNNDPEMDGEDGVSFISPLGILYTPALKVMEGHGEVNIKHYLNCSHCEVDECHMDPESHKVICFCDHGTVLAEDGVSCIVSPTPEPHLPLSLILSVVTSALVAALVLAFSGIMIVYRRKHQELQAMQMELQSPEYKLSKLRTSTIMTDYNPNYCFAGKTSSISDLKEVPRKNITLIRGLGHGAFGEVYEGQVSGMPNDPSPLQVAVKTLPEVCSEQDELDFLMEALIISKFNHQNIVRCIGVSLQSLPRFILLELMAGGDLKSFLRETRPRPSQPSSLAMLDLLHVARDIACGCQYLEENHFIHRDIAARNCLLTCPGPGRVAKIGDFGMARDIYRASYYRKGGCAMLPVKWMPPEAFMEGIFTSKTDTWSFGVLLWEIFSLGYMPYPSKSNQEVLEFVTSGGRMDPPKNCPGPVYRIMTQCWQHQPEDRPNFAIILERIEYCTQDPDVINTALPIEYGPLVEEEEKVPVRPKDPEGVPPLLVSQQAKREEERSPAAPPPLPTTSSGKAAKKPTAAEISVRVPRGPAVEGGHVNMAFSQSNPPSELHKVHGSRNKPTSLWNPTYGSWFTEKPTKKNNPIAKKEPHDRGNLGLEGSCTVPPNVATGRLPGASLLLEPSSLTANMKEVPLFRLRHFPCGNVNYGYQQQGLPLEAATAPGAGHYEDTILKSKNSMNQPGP

| IC50 [1, 5] [µM] | IC50 [2, 6] [µM] | IC50 [3, 7] [µM] | IC50 (TYK2) [µM] | ALK % of inhibition at a concentration of 500 nM or 1 mM [4, 8] [%] | IC50 ([1]; Table B1) [µM] | IC50 ([2]; Table B1) [µM] | IC50 ([3]; Table B1) [µM] | IC50 (TYK2; Table B1) [µM] | Structure (SMILES) | also measured |
| --- | --- | --- | --- | --- | --- | --- | --- | --- | --- | --- |
| 0.01 | > 0.4 | > 0.4 | > 0.4 | 22 | – | – | – | – | O=C(CC1CCN(S(=O)(=O)c2ccccc2OC(F)(F)F)CC1)Nc1ccc2cc1CCc1cncc(c1)Nc1ncc(Cl)c(n1)N2 [Example A227, N-[6-Chloro-2,4,8,18,22-pentaazatetracyclo[14.3.1.1(3,7).1(9,13)]docosa-1(20),3(22),4,6,9(21),10,12,16,18-nonaen-12-yl]-2-(1-{[2-(trifluoromethoxy)phenyl]sulfonyl}piperidin-4-yl)acetamide bis(trifluoroacetate)] | – |
| – | – | – | – | – | 0.0065 | 0.0041 | 0.0074 | 0.015 | CC(=O)Nc1ccc2cc1CCc1cccc(c1)Nc1ncc(Cl)c(n1)N2 [Example B26, N-[6-Chloro-2,4,8,22-tetraazatetracyclo[14.3.1.1(3,7).1(9,13)]docosa-1(20), 3(22),4,6,9(21),10,12,16,18-nonaen-12-yl]acetamide trifluoroacetate] | IC50 [4, 9]: 1.1 µM |
| – | – | – | – | – | 0.004 | 0.0077 | 0.052 | 0.013 | CC(C)NC(=O)NCCNC(=O)Nc1ccc2cc1CCc1cccc(c1)Nc1ncc(Cl)c(n1)N2 [Example B188, N-[6-Chloro-2,4,8,22-tetraazatetracyclo[14.3.1.1(3,7).1(9,13)]docosa-1(20),3(22),4,6,9(21),10,12,16,18-nonaen-12-yl]-N′-(2-{[(isopropylamino)carbonyl]amino}ethyl)urea trifluoroacetate] | ALK % of inhibition at a concentration of 500 nM or 1 mM [4, 10]: 24% |
| – | – | – | – | – | 0.048 | 0.371 | > 0.4 | > 0.4 | O=C(Nc1ccc2cc1CCc1cncc(c1)Nc1ncc(Cl)c(n1)N2)N1CCC(c2cnccn2)C1 (stereo not shown) [Example B313, N-[6-Chloro-2,4,8,18,22-pentaazatetracyclo[14.3.1.1(3,7).1(9,13)]docosa-1(20),3(22),4,6,9(21),10,12,16,18-nonaen-12-yl]-3-pyrazin-2-ylpyrrolidine-1-carboxamide tetrakis(trifluoroacetate)] | ALK % of inhibition at a concentration of 500 nM or 1 mM ([4]; percentage inhibition of the example compound at a concentration of 500 nM or 1 mM (not specified which)): 20% |
| – | – | – | – | – | – | – | – | – | O=C(c1cc2cc(c1)OCCSc1cccc(c1)Nc1nc(ncc1Cl)N2)N1CCN(c2ccccc2)CC1 [Example D53, 6-Chloro-20-[(4-phenylpiperazin-1-yl)carbonyl]-17-oxa-14-thia-2,4,8,24-tetraazatetracyclo[16.3.1.1(3,7).1(9,13)]tetracosa-1(22),3(24),4,6,9(23),10,12,18,20-nonaene bis(trifluoroacetate)] | IC50 ([1]; Table D1): 0.027 µM; IC50 ([2]; Table D1): 0.034 µM; IC50 ([3]; Table D1): 0.273 µM; IC50 (TYK2; Table D1): 0.028 µM; IC50 ([4]; Table D1, 90 μM ATP): 1.15 µM |
| – | – | – | – | – | 0.0013 | 0.0021 | 0.02 | 0.0077 | Cc1occc1NC(=O)Nc1ccc2cc1CCc1cccc(c1)Nc1ncc(Cl)c(n1)N2 [Example B118, N-[6-Chloro-2,4,8,22-tetraazatetracyclo[14.3.1.1(3,7).1(9,13)]docosa-1(20), 3(22),4,6,9(21),10,12,16,18-nonaen-12-yl]-N′-(2-methyl-3-furyl)urea trifluoroacetate] | ALK % of inhibition at a concentration of 500 nM or 1 mM [4, 10]: 22% |
| 0.0032 | > 0.2 | > 0.2 | > 0.2 | 5.6 | – | – | – | – | N#Cc1c(Cl)cccc1N1CCC(CC(=O)Nc2ccc3cc2CCc2cncc(c2)Nc2ncc(Cl)c(n2)N3)CC1 [Example A222, 2-[1-(3-Chloro-2-cyanophenyl)piperidin-4-yl]-N-[6-chloro-2,4,8,18,22-pentaazatetracyclo[14.3.1.1(3,7).1(9,13)]docosa-1(20),3(22),4,6,9(21),10,12,16,18-nonaen-12-yl]acetamide tris(trifluoroacetate)] | – |
| – | – | – | – | – | 0.006 | 0.011 | 0.063 | 0.019 | O=C(Nc1ccc2cc1CCc1cccc(c1)Nc1ncc(Cl)c(n1)N2)N[C@H]1CCN(C(=O)C2CC2)C1 [Example B228, N-[6-Chloro-2,4,8,22-tetraazatetracyclo[14.3.1.1(3,7).1(9,13)]docosa-1(20),3(22),4,6,9(21),10,12,16,18-nonaen-12-yl]-N′-[(3S)-1-(cyclopropylcarbonyl)pyrrolidin-3-yl]urea trifluoroacetate] | ALK % of inhibition at a concentration of 500 nM or 1 mM [4, 10]: 10% |
| – | – | – | – | – | 0.021 | 0.023 | 0.308 | 0.341 | Fc1ccc(CN2CCN(Cc3cc4cc(c3)Nc3nc(ncc3Cl)Nc3cccc(c3)CC4)CC2)cc1 [Example B192, 6-Chloro-11-{[4-(4-fluorobenzyl)piperazin-1-yl]methyl}-2,4,8,22-tetraazatetracyclo[14.3.1.1(3,7).1(9,13)]docosa-1(20),3(22),4,6,9(21),10,12,16,18-nonaene tris(trifluoroacetate)] | IC50 [4, 9]: > 1 µM |
| 0.01 | 0.02 | 0.17 | 0.019 | 21 | – | – | – | – | O=C(CC1CCN(C(=O)c2cnccn2)CC1)Nc1ccc2cc1CCc1cncc(c1)Nc1ncc(Cl)c(n1)N2 [Example A102, N-[6-Chloro-2,4,8,18,22-pentaazatetracyclo[14.3.1.1(3,7).1(9,13)]docosa-1(20),3(22),4,6,9(21),10,12,16,18-nonaen-12-yl]-2-[1-(pyrazin-2-ylcarbonyl)piperidin-4-yl]acetamide tris(trifluoroacetate)] | – |
| – | – | – | – | – | 0.043 | > 0.2 | > 0.2 | > 0.2 | O=C(Nc1ccc2cc1CCc1cncc(c1)Nc1ncc(Cl)c(n1)N2)N1CCN(C(=O)c2ccccc2)CC1 [Example B286, 4-Benzoyl-N-[6-chloro-2,4,8,18,22-pentaazatetracyclo[14.3.1.1(3,7).1(9,13)]docosa-1(20),3(22),4,6,9(21),10,12,16,18-nonaen-12-yl]piperazine-1-carboxamide bis(trifluoroacetate)] | ALK % of inhibition at a concentration of 500 nM or 1 mM [4, 10]: 51% |
| 0.004 | 0.0029 | 0.0035 | 0.012 | 54 | – | – | – | – | O=C(Nc1ccc2cc1CCc1cccc(c1)Nc1ncc(Cl)c(n1)N2)[C@@H]1CCN(C(=O)Nc2ccccc2)C1 [Example A54, (3R)—N(3)-[6-Chloro-2,4,8,22-tetraazatetracyclo[14.3.1.1(3,7).1(9,13)]docosa-1(20),3(22),4,6,9(21),10,12,16,18-nonaen-12-yl]-N(1)-phenylpyrrolidine-1,3-dicarboxamide trifluoroacetate] | – |
| 0.017 | 0.0069 | 0.025 | 0.039 | 26 | – | – | – | – | CC(=O)N1CCCC(C(=O)Nc2ccc3cc2CCc2cccc(c2)Nc2ncc(Cl)c(n2)N3)C1 (stereo not shown) [Example A47, 1-Acetyl-N-[6-chloro-2,4,8,22-tetraazatetracyclo[14.3.1.1(3,7).1(9,13)]docosa-1(20),3(22),4,6,9(21),10,12,16,18-nonaen-12-yl]piperidine-3-carboxamide trifluoroacetate] | – |
| – | – | – | – | – | – | – | – | – | N#Cc1ccc2cc1OCCSc1cccc(c1)Nc1nc(ncc1Cl)N2 [Example D81, 6-Chloro-17-oxa-14-thia-2,4,8,24-tetraazatetracyclo[16.3.1.1(3,7).1(9,13)]tetracosa-1(22),3(24),4,6,9(23),10,12,18,20-nonaene-19-carbonitrile trifluoroacetate] | IC50 ([1]; Table D1): 0.012 µM; IC50 ([2]; Table D1): 0.016 µM; IC50 ([3]; Table D1): 0.13 µM; IC50 (TYK2; Table D1): 0.053 µM; IC50 ([4]; Table D1, 90 μM ATP): > 10 µM |

— patent US8871753B2, “Macrocyclic compounds and their use as kinase inhibitors” (Incyte Corporation, priority 2008, dated 2014)
